Laboratory results taken from patent US10551384B2, “MTOR kinase mutations and methods of use thereof” (RUTGERS, THE STATE UNIVERSITY OF NEW JERSEY, priority 2016, dated 2020).

Columns and labels:
[1] = tested on: SW480 colorectal cancer cells carrying L2185A mutant mTOR alleles; assay: SRB growth assay of SW480 cells carrying L2185A mutant mTOR; assay type: cell-based, human; settings: various concentrations, 2 day
Procedure: (FIG. 5A) SW480 cells carrying homozygous WT mTOR or L2185A mutant alleles were treated with various concentrations of AZD8055, INK-128, OSI-027 and PP242 for 2 day. Growth of SW480 cells was measured by SRB assay. Data represent means±SD in three independent experiments. (FIG. 5B) SW480 cells carrying homozygous WT and L2185A mutant mTOR allele were treated with a single dose of AZD8055 (100 nM), INK-128 (100 nM), OSI-027 (6,000 nM), and PP242 (2,000 nM) for different times. Cell growth was measured by SRB assay. The drug carrier DMSO was used as a control. Data represent means±SD in three independent experiments. (FIG. 5C) SW480 cells carrying homozygous WT and L2185A mutant mTOR were treated with various concentrations of INK-128, OSI-027, AZD8055 and PP242 for 1 hr. The effect on the level of P-S6K, S6K, P-4E-BP1, 4EB-P1, P-AKT and AKT was analyzed by immunoblot. […] The growth of SW480 cells was measured by SRB assay. Data represent means±SD in three independent experiments.
Cancer cell lines were maintained in DMEM or RPMI 1640, supplemented with 10% fetal bovine serum (Invitrogen) and 1% penicillin/streptomycin (Invitrogen). CRISPR/cas9 technology was used to engineer mutant mTOR allele in SW480 colorectal and H460 lung cancer cells. Briefly, The target sequence for mTOR, […] (SEQ ID NO: 3 was designed through the online tool at crispr.mit.edu, and cloned into pSPCas9(BB)-2A-GFP vector (PX458 in Addgene). Genomic mTOR mutation was engineered using a protocol as described (Ran, et al. (2013). Nature protocols 8, 2281-2308) and was confirmed by targeted sequencing.
Antibodies against tubulin, S6K, phospho-S6K (Thr389), 4E-BP1, phospho-4E-BP1 (Thr37/46), Akt, phospho-Akt (Thr308), and phospho-Akt (Ser473) were purchased from Cell Signaling Technology. […] For drug sensitivity test, cancer cells were seeded in 96-well plates at a density of 2,000 cells per well. 24 hours later, different concentrations of mTOR inhibitors were added in quadruplicate. Cell growth was measured by the sulforhodamine B (SRB) assay as previously described (Vichai, V., and Kirtikara, K. (2006). Nature protocols 1, 1112-1116).

[2] = target: T1, tor2-dg cells expressing TOR2 (Saccharomyces cerevisiae, UniProt P32600); assay: Yeast serial-dilution drug sensitivity assay, tor2-dg cells expressing TOR2; assay type: cell-based, S. cerevisiae; settings: 10-fold serial dilutions on plates containing drug
T1 construct: expressed in transfected cells; host or cells: S. cerevisiae W303 tor2-dg, plasmid pML40-TOR2
T1 sequence (P32600 whole entry): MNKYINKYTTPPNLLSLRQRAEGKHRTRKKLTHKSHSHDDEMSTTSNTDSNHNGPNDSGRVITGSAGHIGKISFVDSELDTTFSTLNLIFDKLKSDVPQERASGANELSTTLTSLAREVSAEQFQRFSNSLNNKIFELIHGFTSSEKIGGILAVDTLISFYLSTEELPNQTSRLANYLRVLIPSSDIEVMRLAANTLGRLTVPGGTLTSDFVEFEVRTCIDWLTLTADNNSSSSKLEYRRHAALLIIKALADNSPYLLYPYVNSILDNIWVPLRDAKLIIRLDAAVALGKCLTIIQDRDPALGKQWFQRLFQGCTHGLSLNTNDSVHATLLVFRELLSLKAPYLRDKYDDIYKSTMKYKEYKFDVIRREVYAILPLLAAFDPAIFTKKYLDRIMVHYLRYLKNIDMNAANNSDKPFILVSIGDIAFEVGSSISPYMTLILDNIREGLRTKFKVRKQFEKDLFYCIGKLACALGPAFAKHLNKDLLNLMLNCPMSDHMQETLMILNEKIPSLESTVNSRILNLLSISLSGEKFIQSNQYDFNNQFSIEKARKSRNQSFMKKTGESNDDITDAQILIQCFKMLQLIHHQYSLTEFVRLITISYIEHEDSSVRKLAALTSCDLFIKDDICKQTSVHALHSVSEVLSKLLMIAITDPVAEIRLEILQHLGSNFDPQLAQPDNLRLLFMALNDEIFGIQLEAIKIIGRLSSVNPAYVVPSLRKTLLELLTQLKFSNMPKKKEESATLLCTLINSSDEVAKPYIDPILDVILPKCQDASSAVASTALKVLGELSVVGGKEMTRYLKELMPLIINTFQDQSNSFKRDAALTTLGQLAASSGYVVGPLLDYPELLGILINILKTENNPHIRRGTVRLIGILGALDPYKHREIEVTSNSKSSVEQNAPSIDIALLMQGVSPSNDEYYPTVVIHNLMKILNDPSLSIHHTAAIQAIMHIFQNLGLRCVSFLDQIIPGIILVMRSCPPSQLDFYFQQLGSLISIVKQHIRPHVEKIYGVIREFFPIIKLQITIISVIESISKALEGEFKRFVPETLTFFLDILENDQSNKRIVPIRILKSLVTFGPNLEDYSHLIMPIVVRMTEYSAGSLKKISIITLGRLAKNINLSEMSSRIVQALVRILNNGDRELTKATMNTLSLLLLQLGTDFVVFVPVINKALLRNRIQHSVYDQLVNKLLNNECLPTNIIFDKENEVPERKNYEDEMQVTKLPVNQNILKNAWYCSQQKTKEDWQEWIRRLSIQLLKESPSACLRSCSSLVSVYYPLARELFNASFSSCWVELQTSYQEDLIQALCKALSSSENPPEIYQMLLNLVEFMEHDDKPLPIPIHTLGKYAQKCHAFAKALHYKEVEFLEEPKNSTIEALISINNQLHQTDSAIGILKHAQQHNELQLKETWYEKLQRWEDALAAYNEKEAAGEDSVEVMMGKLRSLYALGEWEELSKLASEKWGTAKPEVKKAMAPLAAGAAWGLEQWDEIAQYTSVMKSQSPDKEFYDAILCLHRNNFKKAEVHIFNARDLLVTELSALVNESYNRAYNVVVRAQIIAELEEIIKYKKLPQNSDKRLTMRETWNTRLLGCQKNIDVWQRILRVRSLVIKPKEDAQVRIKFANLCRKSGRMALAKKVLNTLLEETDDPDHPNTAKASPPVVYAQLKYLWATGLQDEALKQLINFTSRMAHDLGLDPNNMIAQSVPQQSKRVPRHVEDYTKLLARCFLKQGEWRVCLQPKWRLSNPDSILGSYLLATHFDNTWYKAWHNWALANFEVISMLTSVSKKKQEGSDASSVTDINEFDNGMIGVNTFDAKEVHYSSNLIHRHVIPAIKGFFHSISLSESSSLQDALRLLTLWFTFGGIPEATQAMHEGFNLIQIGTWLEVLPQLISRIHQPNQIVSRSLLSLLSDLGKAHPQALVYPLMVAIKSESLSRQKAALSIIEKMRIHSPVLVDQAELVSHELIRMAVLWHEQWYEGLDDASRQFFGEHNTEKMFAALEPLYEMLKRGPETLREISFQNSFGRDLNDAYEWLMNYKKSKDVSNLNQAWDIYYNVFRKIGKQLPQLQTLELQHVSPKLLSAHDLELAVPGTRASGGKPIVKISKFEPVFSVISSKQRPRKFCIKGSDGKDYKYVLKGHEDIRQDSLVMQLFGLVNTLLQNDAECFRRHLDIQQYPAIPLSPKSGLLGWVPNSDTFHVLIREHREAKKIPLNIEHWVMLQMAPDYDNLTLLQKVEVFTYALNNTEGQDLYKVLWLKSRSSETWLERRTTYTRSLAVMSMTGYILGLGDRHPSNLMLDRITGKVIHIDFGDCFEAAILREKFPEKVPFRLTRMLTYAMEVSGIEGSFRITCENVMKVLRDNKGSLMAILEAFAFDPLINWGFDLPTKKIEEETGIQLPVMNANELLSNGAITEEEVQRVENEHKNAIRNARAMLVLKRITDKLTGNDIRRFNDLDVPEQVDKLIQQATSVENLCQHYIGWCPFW
Text: FIGS. 1A-E. Developing a yeast system to assay for mTOR kinase inhibition. (FIG. 1A) Wild type (WT) yeast cells were spread onto YPD plates and tested for sensitivity to structurally diverse mTOR kinase inhibitors by disc halo assay. Rapamycin was used as a positive control. (FIG. 1B) The N-terminus of TOR2 (1-2080 aa) was fused in frame with mTOR kinase domain (2140-2549 aa). The TOR2-mTOR fusion is expressed under the control of TOR2 promoter in a centromeric plasmid. (FIG. 1C) Yeast strain expressing WT TOR2 or TOR2-mTOR fusion was analyzed for expression by immunoblot with an antibody specific for mTOR kinase domain. PGK1 was used as a loading control and extracts from MCF7 breast cells were used as a positive control for mTOR. (FIG. 1D) TOR2-mTOR fusion was expressed in tort-dg and tested for its ability to complement TOR2 function by growth at permissive and restrictive temperatures.
To enhance yeast cell permeability, log phase W303 tort-dg cells were spread evenly on SD-Leu agarose plates. After drying, small sterile filter discs were placed on the surface and 5 μl of indicated mTOR inhibitors or DMSO were applied to each disc with or without adding 5 μl of amphotericin B (10 μM), miconazole (50 μM) or caspofungin (50 μM). Plates were incubated at 37° C. for 3 day. Drug resistance profiles of TOR2-mTOR mutant cells were determined by the spotting assay. […]

[3] = target: T2, tor2-dg cells expressing TOR2-mTOR fusion (UniProt P32600+P42345); assay type: cell-based, S. cerevisiae; settings: 10-fold serial dilutions on plates containing drug
T2 construct: fused in frame with mTOR kinase domain (2140-2549 aa); yeast TOR2 N-terminus (1-2080 aa); expressed in transfected cells; host or cells: S. cerevisiae W303 tor2-dg, centromeric plasmid derived from pML40-TOR2
Text: The TOR2-mTOR hybrid plasmid was constructed by replacing the C-terminal region of TOR2 of pML40-TOR2 (Alarcon, et al. (1996). Genes & development 10, 279-288) (encoding for 2080-2474 aa) in frame with a DNA fragment corresponding to C-terminal domain of mTOR (encoding for 2140-2549 aa). To construct mutant TOR2-mTOR plasmids, mTOR C-terminal region was amplified by PCR and co-transformed into yeast with XmaI-digested pML40-TOR2 plasmid that excised the TOR2 C-terminal region. The resultant TOR2-mTOR fusion plasmids are constructed in reading frame by gap-repair in yeast.

[4] = tested on: H460 lung cancer cells carrying L2185A mutant mTOR alleles; assay: SRB growth assay of H460 cells carrying L2185A mutant mTOR; assay type: cell-based, human; settings: various concentrations, 2 days
Procedure: (FIG. 10A) Flag-mTOR(L2185A), when transiently expressed in HEK293T cells, confers drug resistance to mTOR kinase inhibitors. HEK293T cells transiently expressing WT and L2185A mutant Flag-mTOR were treated with various concentrations of INK-128, OSI-027 for 1 hr. The effect on the level of P-S6K, S6K, P-4E-BP1, 4EB-P1, P-AKT and AKT was analyzed by immunoblot. (FIG. 10B) Sequencing verification of genome-engineered SW480 and H460 cells carrying homozygous and heterozygous L2185A mutations in mTOR locus. (FIG. 10C) Independent clones of engineered SW480 cells confer similar drug resistance. Cells were treated with various concentrations of AZD8055 and INK-128 for 2 days. Cell growth was measured by SRB assay. Clones #1, 3 carry heterozygous L2185A mutation. Clones #2, 4 carry homozygous L2185A mutation. […] Cell growth was measured by SRB assay. […] Cell growth was measured by SRB assay. […] The effect on level of P-S6K, P-4E-BP1 and P-AKT was analyzed by immunoblot. […] The growth of H460 cells was measured by SRB assay. […]
Antibodies against tubulin, S6K, phospho-S6K (Thr389), 4E-BP1, phospho-4E-BP1 (Thr37/46), Akt, phospho-Akt (Thr308), and phospho-Akt (Ser473) were purchased from Cell Signaling Technology. […] Cell growth was measured by the sulforhodamine B (SRB) assay as previously described (Vichai, V., and Kirtikara, K. (2006). Nature protocols 1, 1112-1116).

[5] = tested on: Wild type (WT) yeast cells; assay: Disc halo assay of wild type yeast sensitivity to mTOR kinase inhibitors; assay type: cell-based, S. cerevisiae; settings: WT yeast on YPD plates; 5 μl on filter disc, BEZ235 5 μM, other mTOR inhibitors 10 μM; 30° C., 3 day
Procedure: For the halo assay, log phase W303 wild type or tor2-dg cells were spread evenly on YPD agarose plates. […] Plates were incubated at 30° C. (wild type) or 37° C. (tor2-dg) for 3 day.

TOR2-mTOR L2185A mutant = assay: Yeast spotting assay for drug resistance, TOR2-mTOR L2185A; assay type: cell-based, S. cerevisiae; settings: 37° C., amphotericin B present (except OSI-027)
Text: (§1) FIGS. 4A-C. […] (FIG. 4A) Scheme of a yeast-based screen for drug-resistant mutations in mTOR kinase domain. mTOR kinase domain is amplified by error-prone PCR to generate randomized mutations, which is then recombined in frame into the TOR2-mTOR plasmid by gap-repair in tort-dg cells, and is selected on SC-leucine minus plates. Replica plating is then made onto SC-leucine plates containing DMSO or mTOR kinase inhibitor for selection of drug resistant clones. (FIG. 4B) tor2-dg cells expressing WT or mutant TOR2-mTOR were serially diluted by 10-fold and assayed for sensitivity to different mTOR kinase inhibitors in the presence of amphotericin B. Vector and TOR2 were used as controls. Drug resistant assay was performed at 37° C. in the presence of amphotericin B (except OSI-027). (FIG. 4C) Systematic mutational analysis of L2185 on drug resistance. tort-dg cells expressing WT or mutant TOR2-mTOR carrying all possible mutations at L2185 were serially diluted by 10-fold and tested for sensitivity to different mTOR kinase inhibitors at 37° C.
(§2) To enhance yeast cell permeability, log phase W303 tort-dg cells were spread evenly on SD-Leu agarose plates. After drying, small sterile filter discs were placed on the surface and 5 μl of indicated mTOR inhibitors or DMSO were applied to each disc with or without adding 5 μl of amphotericin B (10 μM), miconazole (50 μM) or caspofungin (50 μM). Plates were incubated at 37° C. for 3 day. Drug resistance profiles of TOR2-mTOR mutant cells were determined by the spotting assay. For this assay, 10-fold serial dilutions of cells were spotted on SD-leu plates in the presence of indicated mTOR inhibitors with or without amphotericin B (200 nM) and incubated at 37° C. for 3 day.

TOR2-mTOR L2185C mutant = assay: Yeast spotting assay for drug resistance, TOR2-mTOR L2185C; assay type: cell-based, S. cerevisiae; settings: 37° C., amphotericin B present (except OSI-027)
Text: as §1, §2

Row | SMILES | drug resistance/sensitivity of cell growth, SW480 L2185A vs WT [1] | drug sensitivity (growth inhibition) of tor2-dg cells expressing TOR2 [2] | drug sensitivity of tor2-dg cells expressing TOR2-mTOR [3] | drug resistance/sensitivity of cell growth, H460 L2185A vs WT [4] | inhibition of yeast growth (disc halo assay) [5] | drug resistance/sensitivity of TOR2-mTOR L2185A mutant yeast (TOR2-mTOR L2185A mutant) | drug resistance/sensitivity of TOR2-mTOR L2185C mutant yeast (TOR2-mTOR L2185C mutant)
1 | Cn1c(=O)n(-c2ccc(C(C)(C)C#N)cc2)c2c3cc(-c4cnc5ccccc5c4)ccc3ncc21 [BEZ235] | remains sensitive | poorly inhibited | highly sensitive | remains sensitive |  |  | 
2 | Nc1ccc(-c2ccc3ncc4ccc(=O)n(-c5cccc(C(F)(F)F)c5)c4c3c2)cn1 [Torin2] | remains sensitive |  |  | remains sensitive | inhibit yeast growth | remain sensitive | remain sensitive
